Reference: paper PMC6270209, “Synthesis, Antimycobacterial Activity and In Vitro Cytotoxicity of 5-Chloro-N-phenylpyrazine-2-carboxamides” (Molecules, 2013)
≈ marks a conversion by molar mass, not a printed value. Read-outs that look alike come from different tables or passages of the source.

Key:
[1] = tested on: M. tuberculosis H37Rv CNCTC My 331/88; experiment: In vitro antimycobacterial activity, microdilution panel method (MIC); assay type: cell-based, Mycobacterium tuberculosis
[2] = tested on: M. kansasii Hauduroy CNCTC My 235/80; experiment: as above; assay type: cell-based, Mycobacterium kansasii; details: for MIC: Mycobacterium kansasii
[3] = tested on: M. avium ssp. avium Chester CNCTC My 80/72; experiment: as above; assay type: cell-based, Mycobacterium avium; details: for MIC: Mycobacterium avium
M. avium CNCTC My 152/73 = experiment: as above; assay type: cell-based, Mycobacterium avium; details: for MIC: Mycobacterium avium
HepG2 cells [4] = tested on: HepG2 cells
HepG2 cells [5] = experiment: cells; details: Homo sapiens, HepG2, read-out: HepG2 IC50
[6] = tested on: Chinese hamster ovary (CHO-K1) cell line; experiment: cells; details: Cricetulus griseus, CHO-K1, 24 h, read-out: CHO-K1 IC50
[7] = tested on: renal cell adenocarcinoma (ACHN) cell line; experiment: cells; details: Homo sapiens, 24 h, read-out: ACHN IC50
in vitro = details: human
[8] = tested on: Chinese hamster ovary (CHO-K1) cell line
[9] = tested on: renal cell adenocarcinoma (ACHN) cell line
[10] = Solubility in antimycobacterial testing medium (observation); assay type: physicochemical
[11] = RP-HPLC, C18, MeOH 70% / H2O 30%, 30 °C
HepG2 cells [12] = details: comparable HepG2 cytotoxicity assay; cited from earlier work
[13] = Mycobacterium tuberculosis, H37RV, pH 5.6, M. tuberculosis H37Rv, primary test, dilution scale 100–[…], Šula's medium pH 5.6, read-out: Antimycobacterial activity MIC, M. tbc
[14] = Mycobacterium tuberculosis, H37RV, read-out: M. tbc H37Rv MIC (µM), MIC converted to molar concentrations
[15] = M. kansasii Hauduroy CNCTC My 235/80
[16] = Mycobacterium tuberculosis, H37RV, M. tuberculosis H37Rv, retest with extended dilution scale up to 0.39 µg/mL, read-out: Antimycobacterial activity MIC, M. tbc (confirmation retest, value in parentheses)
[17] = Mycobacterium tuberculosis, H37RV, MIC converted to molar concentrations, read-out: M. tbc H37Rv MIC
[18] = SI calculated for M. tbc as IC50 (HepG2)/MIC (in μM) using the lower MIC values (Table 1)

## NC(=O)c1cnc(Cl)cn1 [Compound 5-Cl-PZA, 5-chloropyrazine-2-carboxamide, reference compound]
[1]; [13]
  MIC: 25 µg/mL
[1]; [14]
  MIC: 159 µM
[2]; [15]
  MIC: 12.5 µg/mL (≈ 79.3 µM)
[3]
  MIC: > 100 µg/mL
M. avium CNCTC My 152/73
  MIC: > 100 µg/mL
HepG2 cells [4]; human
  Cytotoxicity SI: 10.0
HepG2 cells [5]
  IC50: 1590 µM
[6]
  IC50: 290 ± 43 µM
[7]
  IC50: 540 ± 120 µM
In vitro
  IC50: 1590 µM

## O=C(Nc1ccc(C(=O)O)c(O)c1)c1cnc(Cl)cn1 [Compound 30, 4-(5-Chloropyrazine-2-carboxamido)-2-hydroxybenzoic acid]
[1]; MIC converted to molar concentrations, read-out: M. tbc H37Rv MIC
  MIC: 10.7 µM
[1]; MIC for M. tbc H37Rv in µM compared
  Activity in comparison with PZA (times more active): 5–10 times
[1]; [13]
  MIC: 3.13 µg/mL
[1]; [14]
  MIC: 10 µM
[3]
  MIC: > 100 µg/mL
M. avium CNCTC My 152/73
  MIC: > 100 µg/mL
other
  melting point: 240 to 244 °C (dec.)
[8]
  Cytotoxicity rating in CHO-K1 cell line (in words): non-toxic
[9]
  Cytotoxicity rating in ACHN cell line (in words): non-toxic
[6]
  IC50: 502 ± 122 µM
[7]
  IC50: 371 ± 96 µM

## O=C(Nc1cc(Cl)ccc1O)c1cnc(Cl)cn1 [Compound 21, 5-Chloro-N-(5-chloro-2-hydroxyphenyl)pyrazine-2-carboxamide]
[1]; [16]
  MIC: 6.25 µg/mL
[1]; [17]
  MIC: 5.5 µM
[1]; [13]
  MIC: 1.56 µg/mL
[2]; [15]
  Antimycobacterial activity MIC, M. kansasii: 12.5 µg/mL
  MIC: 12.5 µg/mL (≈ 44 µM)
[3]
  Antimycobacterial activity MIC, M. avium: 12.5 µg/mL
  MIC: 12.5 µg/mL (≈ 44 µM)
M. avium CNCTC My 152/73
  Antimycobacterial activity MIC, M. avium: 12.5 µg/mL
  MIC: 12.5 µg/mL (≈ 44 µM)
HepG2 cells [4]; [18]
  Cytotoxicity SI: 7.39
HepG2 cells [5]
  IC50: 41 µM
[6]
  IC50: 39 ± 2 µM
[7]
  IC50: 51 ± 14 µM
In vitro
  IC50: 40.6 µM

## COc1ccc(NC(=O)c2cnc(Cl)cn2)c(OC)c1 [Compound 5]
[1]
  Antimycobacterial activity against M. tbc H37Rv (in words): inactive
[1]; [13]
  MIC: > 50 µg/mL
[2]; [15]
  MIC: > 50 µg/mL
[3]
  MIC: > 50 µg/mL
M. avium CNCTC My 152/73
  MIC: > 50 µg/mL
[10]
  Solubility in testing medium (in words): Insufficient solubility

## O=C(Nc1ccc(O)cc1)c1cnc(Cl)cn1 [Compound 4, 5-Chloro-N-(4-hydroxyphenyl)pyrazine-2-carboxamide]
[1]; [16]
  MIC: 12.5 µg/mL
[1]; [17]
  MIC: 12.5 µM
[1]; [13]
  MIC: 3.13 µg/mL
[2]
  Activity against M. kansasii (in words): inactive
[2]; [15]
  MIC: 100 µg/mL (≈ 401 µM)
[3]
  MIC: > 100 µg/mL
M. avium CNCTC My 152/73
  MIC: 50 µg/mL (≈ 200 µM)
HepG2 cells [4]; [18]
  Cytotoxicity SI: 5.47
HepG2 cells [5]
  IC50: 69 µM
[6]
  IC50: 48 ± 4 µM
[7]
  IC50: 100 ± 39 µM
In vitro
  IC50: 68.6 µM

## NNC(=O)c1ccncc1 [INH, isoniazid, reference compound]
[1]; [13]
  MIC: 0.39 to 0.78 µg/mL
[2]; [15]
  MIC: 12.5 to 25 µg/mL (≈ 91.1 to 182 µM)
[3]
  MIC: 12.5 to 25 µg/mL (≈ 91.1 to 182 µM)
M. avium CNCTC My 152/73
  MIC: 3.13 to 6.25 µg/mL (≈ 22.8 to 45.6 µM)
[11]
  Lipophilicity logk: −0.743
HepG2 cells [12]
  IC50: 79000 µM

## O=C(Nc1ccc(I)cc1Cl)c1cnc(Cl)cn1 [Compound 18, 5-Chloro-N-(2-chloro-4-iodophenyl)pyrazine-2-carboxamide]
[1]
  Antimycobacterial activity against M. tbc H37Rv (in words): inactive or weakly active
[1]; [13]
  MIC: 12.5 µg/mL
[2]
  Activity against M. kansasii (in words): most active
[2]; [15]
  MIC: 1.56 µg/mL (≈ 3.96 µM)
[3]
  MIC: > 50 µg/mL
M. avium CNCTC My 152/73
  MIC: > 50 µg/mL
[10]
  Solubility in testing medium (in words): low solubility
other
  melting point: 175.6 to 177.3 °C

## O=C(Nc1cc(Cl)c(Cl)cc1Cl)c1cnc(Cl)cn1 [Compound 15, 5-Chloro-N-(2,4,5-trichlorophenyl)pyrazine-2-carboxamide]
[1]
  Antimycobacterial activity against M. tbc H37Rv (in words): inactive or weakly active
[1]; [13]
  MIC: > 100 µg/mL
[2]; [15]
  MIC: > 100 µg/mL
[3]
  MIC: > 100 µg/mL
M. avium CNCTC My 152/73
  MIC: > 100 µg/mL
[10]
  Solubility in testing medium (in words): low solubility
other
  melting point: 189.3 to 192.4 °C
